ChEMBL document CHEMBL1136898, “Conformational analysis of N,N-disubstituted-1,4-diazepane orexin receptor antagonists and implications for receptor binding” (Bioorg Med Chem Lett, 2009)

Tests used:
[1] = molecular target: T1, Orexin/Hypocretin receptor type 1 (Homo sapiens, UniProt O43613); test: Binding affinity to OX1 receptor
T1 sequence (O43613 whole entry): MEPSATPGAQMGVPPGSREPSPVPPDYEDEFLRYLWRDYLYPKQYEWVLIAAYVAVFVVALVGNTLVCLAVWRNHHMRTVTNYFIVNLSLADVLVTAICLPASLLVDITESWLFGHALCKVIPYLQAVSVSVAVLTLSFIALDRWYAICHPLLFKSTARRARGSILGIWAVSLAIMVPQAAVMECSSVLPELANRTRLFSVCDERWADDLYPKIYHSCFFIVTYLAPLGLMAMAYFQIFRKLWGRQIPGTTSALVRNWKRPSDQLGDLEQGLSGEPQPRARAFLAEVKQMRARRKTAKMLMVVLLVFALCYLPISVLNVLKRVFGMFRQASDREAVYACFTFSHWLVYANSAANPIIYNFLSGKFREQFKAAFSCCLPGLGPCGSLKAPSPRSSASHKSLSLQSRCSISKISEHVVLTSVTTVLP

Orexin receptor type 2 = molecular target: T2, Orexin receptor type 2 (Homo sapiens, UniProt O43614); test: Binding affinity to OX2 receptor
T2 sequence (O43614 whole entry): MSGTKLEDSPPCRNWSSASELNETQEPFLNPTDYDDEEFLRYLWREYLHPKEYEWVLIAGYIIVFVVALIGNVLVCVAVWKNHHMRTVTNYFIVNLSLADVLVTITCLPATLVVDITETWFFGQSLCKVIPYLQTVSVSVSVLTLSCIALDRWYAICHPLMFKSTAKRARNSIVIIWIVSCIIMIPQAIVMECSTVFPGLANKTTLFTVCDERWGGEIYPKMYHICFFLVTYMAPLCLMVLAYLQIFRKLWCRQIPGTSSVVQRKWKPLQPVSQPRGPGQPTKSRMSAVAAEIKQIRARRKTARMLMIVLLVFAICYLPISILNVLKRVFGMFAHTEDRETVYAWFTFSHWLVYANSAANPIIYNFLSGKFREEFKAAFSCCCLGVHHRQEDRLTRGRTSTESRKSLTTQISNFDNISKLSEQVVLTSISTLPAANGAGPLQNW

| Ki [1] [nM] | Ki (Orexin receptor type 2) [nM] | SMILES |
| --- | --- | --- |
| 51 | 42 | O=C1c2cc(ccc2-n2nccn2)CCCCCCc2ccc3cc(ccc3c2)N2CCCN1CC2 |
| 930 | 240 | Cc1ccc(-n2nccn2)c(CN2CCCN(c3ncc4ccccc4n3)CC2)c1 |
| 9800 | 550 | O=C(C1CCCCC1)N1CCCN(c2ncc3ccccc3n2)CC1 |
| 2 | 2 | Cc1ccc(-n2nccn2)c(C(=O)N2CCCN(c3ccc4ccccc4c3)CC2)c1 |
